These results are taken from ChEMBL document CHEMBL1131513, “SAR studies of diaryltriazoles against bacterial two-component regulatory systems and their antibacterial activities” (Bioorg Med Chem Lett, 1998).

Values after ≈ are worked out from the molar mass of the structure shown. Where only a bound is given, the exact number is not on record here.

Experiment [1] concerns the target T1, KinA/Spo0F (sporulation kinase A/sporulation initiation phosphotransferase F) (Bacillus subtilis (strain 168), UniProt P06628+P16497).
T1 sequence (P06628 whole entry): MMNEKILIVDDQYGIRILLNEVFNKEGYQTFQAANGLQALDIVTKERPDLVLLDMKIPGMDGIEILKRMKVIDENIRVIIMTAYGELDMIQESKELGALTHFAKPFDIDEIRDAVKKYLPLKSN
T1 sequence (P16497 whole entry): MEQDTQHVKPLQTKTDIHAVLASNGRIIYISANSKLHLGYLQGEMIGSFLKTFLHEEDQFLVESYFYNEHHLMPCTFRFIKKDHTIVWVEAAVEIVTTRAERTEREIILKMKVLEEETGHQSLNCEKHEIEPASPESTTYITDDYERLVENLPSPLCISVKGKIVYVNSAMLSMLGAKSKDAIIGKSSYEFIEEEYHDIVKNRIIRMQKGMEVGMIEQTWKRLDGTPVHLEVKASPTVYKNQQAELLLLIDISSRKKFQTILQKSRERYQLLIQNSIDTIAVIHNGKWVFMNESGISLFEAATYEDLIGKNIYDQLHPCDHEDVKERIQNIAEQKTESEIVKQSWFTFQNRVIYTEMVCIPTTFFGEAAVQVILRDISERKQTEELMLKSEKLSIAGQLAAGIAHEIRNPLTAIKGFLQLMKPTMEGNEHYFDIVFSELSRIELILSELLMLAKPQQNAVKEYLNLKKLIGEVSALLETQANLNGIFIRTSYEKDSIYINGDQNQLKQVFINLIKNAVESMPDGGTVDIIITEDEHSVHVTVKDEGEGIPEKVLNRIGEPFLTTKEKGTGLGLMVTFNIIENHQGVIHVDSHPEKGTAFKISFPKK
Briefly: Ability to inhibit autophosphorylation of KinA/Sp0F assay. It is filed as protein assay.

Experiment [2] in a line: Ratio of NRII-NRI to KinA-Spo0F IC50s.
Experiment [3] can be described thus: (§1) Inhibition of NRII and/or NRI phosphorylation in Escherichia coli.
The test system of experiment [4] is Bacteria. Briefly: Minimum inhibitory concentration for Gram-positive antibacterial activity by using standard MIC broth assay method; 4-8. It is filed as functional.
For experiment [5], the system named is Bacteria. Briefly: Minimum inhibitory concentration for Gram-positive antibacterial activity by using standard MIC broth assay method; 0.25-1. The class given is functional.
Experiment [6] is described as follows: as §1. The class given is functional.
The subject of experiment [7] is Bacteria. Briefly: Minimum inhibitory concentration for Gram-positive antibacterial activity by using standard MIC broth assay method. The class given is functional.
The test system of experiment [8] is Bacteria. Briefly: Minimum inhibitory concentration for Gram-positive antibacterial activity by using standard MIC broth assay method; 0.25-0.5. The class given is functional.
Experiment [9] deals with Bacteria. Briefly: Minimum inhibitory concentration for Gram-positive antibacterial activity by using standard MIC broth assay method; 0.5-2. The class given is functional.
The subject of experiment [10] is Bacteria. Briefly: Minimum inhibitory concentration for Gram-positive antibacterial activity by using standard MIC broth assay method; 0.1-0.5. It is filed as functional.
Experiment [11] concerns Bacteria. Briefly: Minimum inhibitory concentration for Gram-positive antibacterial activity by using standard MIC broth assay method; 0.5-1. The class given is functional.
The test system of experiment [12] is Bacteria. Briefly: Minimum inhibitory concentration for Gram-positive antibacterial activity by using standard MIC broth assay method; 8-16. It is filed as functional.

For orientation: IC50 means the point on the concentration scale where inhibition reaches its midpoint. A lower IC50 goes with inhibition by little substance. As usually defined, the MIC is the smallest concentration in the dilution series that meets the test's criterion for growth inhibition. Lower therefore signals greater potency.

`Oc1c(Br)cc(Br)cc1-c1n[nH]c(-c2ccc(Oc3ccccc3)cc2)n1`: the figures for the IC50 in experiment [1] and in [3] were 100 µM and 75 µM, respectively. The Ratio in [2] was determined as 0.75.

On to `Cc1ccc(-c2n[nH]c(-c3cc(Cl)cc(Cl)c3O)n2)cc1C`, for which 4 µg/mL (≈ 12 µM) was the least that counted as inhibitory in experiment [4] (MIC). The same compound registered an IC50 in experiment [1] above 500 µM.

Regarding `Oc1c(-c2n[nH]c(-c3ccc(Cl)c(Cl)c3)n2)cc(C(F)(F)F)cc1C(F)(F)F`, the IC50 in experiment [1] was 44 µM. Further, in experiment [5], the MIC was determined as 0.25 µg/mL (≈ 0.565 µM).

For `O=[N+]([O-])c1cc(-c2n[nH]c(-c3ccc(Cl)c(Cl)c3)n2)c(O)c([N+](=O)[O-])c1`, the concentration for half-maximal inhibition (IC50) in experiment [6] is 28 µM; in experiment [1] it was 8 µM. In addition, the Ratio in experiment [2] came out at 3.5. Moreover, the MIC in [7] is above 64 µg/mL.

Take `O=[N+]([O-])c1ccc(-c2nc(-c3cc(Cl)cc(Cl)c3O)n[nH]2)cc1`: the IC50 in experiment [1] is above 500 µM.

`Oc1c(Cl)cc(Cl)cc1-c1n[nH]c(-c2ccc(Cl)c(Cl)c2)n1` gave an MIC in experiment [8] of 0.25 µg/mL (≈ 0.667 µM). Further, the IC50 in experiment [1] amounted to 67 µM; in [3], 150 µM. Further, the Ratio in [2] was 2.2.

Consider `Oc1c(Cl)cc(Cl)cc1-c1n[nH]c(-c2ccc(Cl)cc2)n1`, for which 0.5 µg/mL (≈ 1.47 µM) was the least that counted as inhibitory in [9] (MIC). The IC50 stood at 80 µM in [1] and 57 µM in experiment [3]. Besides, in experiment [2], the Ratio came to 0.71.

On to `Oc1c(Cl)cc(Cl)cc1-c1n[nH]c(-c2ccccc2)n1`, for which the IC50 in experiment [1] was found to be 380 µM.

Take `CC(C)(C)c1cc(-c2n[nH]c(-c3ccc(Cl)c(Cl)c3)n2)c(O)c(C(C)(C)C)c1`: the IC50 in experiment [1] was above 500 µM.

Consider `Oc1c(Cl)cccc1-c1n[nH]c(-c2ccc(Cl)c(Cl)c2)n1`, for which the half-maximal inhibitory concentration (IC50) in experiment [1] is above 500 µM.

For `Oc1c(Cl)cc(Cl)cc1-c1n[nH]c(-c2ccc(Cl)c(C(F)(F)F)c2)n1`, the IC50 in [1] stood at 16 µM; in experiment [3], 65 µM. For the same compound, the Ratio in [2] worked out at 4.1. Also, in experiment [5], 0.25 µg/mL (≈ 0.612 µM) was the least that counted as inhibitory (MIC).

Take `CC(C)c1ccc(-c2n[nH]c(-c3cc(Cl)cc(Cl)c3O)n2)cc1`: the IC50 in experiment [1] is above 500 µM.

For the compound `O=C(Nc1ccc(Cl)c(Cl)c1)c1cc(Cl)cc(Cl)c1O` [3,3',4',5-TETRACHLOROSALICYLANILIDE], the MIC in [10] was found to be 0.1 µg/mL (≈ 0.285 µM). This compound yielded an IC50 in [1] of 37 µM.

In experiment [11], `Oc1c(Cl)cc(Cl)cc1-c1n[nH]c(-c2cccc(Cl)c2)n1` returned an MIC of 0.5 µg/mL (≈ 1.47 µM). Besides, the IC50 in experiment [1] amounted to 87 µM; in experiment [3], 130 µM. Moreover, in experiment [2], the Ratio turned out to be 1.5.

`COc1ccc(-c2n[nH]c(-c3cc(Cl)cc(Cl)c3O)n2)cc1` had an IC50 in experiment [1] above 500 µM.

For `NS(=O)(=O)c1ccc(O)c(-c2n[nH]c(-c3ccc(Cl)c(Cl)c3)n2)c1`, the lowest concentration to inhibit growth in experiment [12] (MIC) was 8 µg/mL (≈ 20.8 µM). Moreover, in experiment [1], the IC50 worked out at 91 µM.

For `Oc1ccc(Cl)cc1-c1n[nH]c(-c2ccc(Cl)c(Cl)c2)n1`, the IC50 in [1] is above 500 µM. In experiment [7], this compound had an MIC above 32 µg/mL.

`Oc1c(Br)cc(Br)cc1-c1n[nH]c(-c2ccc(Cl)c(Cl)c2)n1` returned an MIC in experiment [8] of 0.25 µg/mL (≈ 0.539 µM). In addition, the IC50 in experiment [1] is 24 µM.
